Patent US20110275559A1, “Long-Acting Y2 and/or Y4 Receptor Agonists” (Novo Nordisk A/S, priority 2008, published 2011)
Like-named read-outs stand apart in the source and are kept apart here. *1 amine or outer side, *2 acyl side, *3 side chain or, on linkers, in order; H or OH if unused. Where a SMILES comes first, the peptide text is derived from it. Side-chain parts run from the residue outwards. The star is where a group is joined. C20 diacid = O=C(O)CCCCCCCCCCCCCCCCCCC(=O)*; C18 diacid = O=C(O)CCCCCCCCCCCCCCCCC(=O)*; γGlu = O=C(O)[C@H](CCC(=O)[*:2])N[*:1]; Trx = NC[C@H]1CC[C@H](C(=O)O)CC1; AEEA = NCCOCCOCC(=O)O

What was measured:
Y2 receptor = target: T1, Y2 receptor (Homo sapiens, UniProt P49146); assay: Y2 receptor ACTOne based FLIPR assay (cAMP biosensor); assay type: cell-based
T1 construct: host or cells: ACTOne HEK-293 cells
T1 sequence (P49146 1-381): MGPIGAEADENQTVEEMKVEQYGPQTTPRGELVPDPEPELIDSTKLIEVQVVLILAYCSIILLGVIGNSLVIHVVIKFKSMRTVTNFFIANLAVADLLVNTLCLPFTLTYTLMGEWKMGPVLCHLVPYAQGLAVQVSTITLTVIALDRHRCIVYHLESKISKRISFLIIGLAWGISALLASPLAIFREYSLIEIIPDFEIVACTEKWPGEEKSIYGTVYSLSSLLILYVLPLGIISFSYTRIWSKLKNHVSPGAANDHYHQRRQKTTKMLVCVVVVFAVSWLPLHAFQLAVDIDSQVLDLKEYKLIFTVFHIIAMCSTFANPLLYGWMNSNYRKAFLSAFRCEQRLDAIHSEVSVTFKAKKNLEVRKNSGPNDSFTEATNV

Y4 receptor = target: T2, Y4 receptor (Homo sapiens, UniProt P50391); assay: Y4 receptor ACTOne based FLIPR assay (cAMP biosensor); assay type: cell-based
T2 construct: host or cells: ACTOne HEK-293 cells
T2 sequence (P50391 whole entry): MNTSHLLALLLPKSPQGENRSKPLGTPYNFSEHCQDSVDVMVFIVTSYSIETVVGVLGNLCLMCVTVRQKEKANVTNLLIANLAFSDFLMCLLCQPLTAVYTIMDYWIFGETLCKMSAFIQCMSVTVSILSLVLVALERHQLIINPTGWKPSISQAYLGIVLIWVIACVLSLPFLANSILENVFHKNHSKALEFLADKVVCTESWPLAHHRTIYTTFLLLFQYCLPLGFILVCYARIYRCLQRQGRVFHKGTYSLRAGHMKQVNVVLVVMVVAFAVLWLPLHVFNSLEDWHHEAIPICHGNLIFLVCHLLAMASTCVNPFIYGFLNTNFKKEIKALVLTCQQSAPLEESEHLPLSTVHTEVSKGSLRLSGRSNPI
Description: ACTOne™ is an easily scaleable cAMP biosensor HTS platform for measurement of Gs and Gi coupled 7™ receptor signalling from BD Biosciences (San Jose, Calif.). The cells express a biosensor developed around a modified rat olfactory cyclic nucleotide gated (CNG) calcium channel—a fairly non-discriminatory ion channel that responds to cAMP and cGMP. The CNG has been engineered to be cAMP selective and thus function as a cAMP responsive biosensor that signals through calcium or membrane potential responsive dyes. Y2 or Y4 receptor expressing ACTOne HEK-293 cells are obtained from BD Biosciences. The cells are loaded with a calcium responsive dye that only distributes in the cytoplasm. Probenecid, an inhibitor of the organic anion transporter is added to prevent the dye from leaving the cell. A phosphodiesterase inhibitor is added to prevent formatted cAMP from being degraded. Isoproterenol (an β1/β2 agonist) is added to activate the adenylate cyclase. When an Y2 or Y4 receptor agonist is added, the adenylate cyclase is inactivated. The decreased calcium concentration in the cytoplasm is then detected as an increase in fluorescence. Together with the test substance, Isoproterenol at a concentration matching EC80, is added to all wells. • The cells are plated out in Greiner 384-well plates. […] The plates are covered with tinfoil to avoid light (the dye can be excited by the daylight, which results in higher baseline and variation). • The FLIPR (FLIPRtetra from Molecular Devices, CA, USA) adds 1 μl sample and 1 μl isoproterenol (0.05 μM final concentration) at the same time. • The fluorescence signal from the wells is measured 330 seconds after sample addition on the FLIPR.

in vivo = conditions: Göttingen, minipig
In short: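 Catheterised mini-pigs received compound i.v. at 10 nmol/kg in pH 4.0 phosphate/NaCl/tween vehicle, or alternatively i.v. or s.c. at 1–30 nmol/kg in pH 8.0 K2HPO4/tween. Stabilised plasma was sampled up to 13 days and assayed by LC-MS (LLOQ 2 nM). Half-life came from non-compartmental analysis of individual animal profiles.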

[1] = Table 2, PP analogues, ACTOne HEK-293 cells, read-out: Y2 cAMP EC50
[2] = Table 2, PP analogues, ACTOne HEK-293 cells, read-out: Y4 cAMP EC50

| Compound | EC50 (Y2 receptor; [1]) [nM] | EC50 (Y4 receptor; [2]) [nM] | EC50 (Y4 receptor) [nM] | other results |
| --- | --- | --- | --- | --- |
| CC[C@H](C)[C@H](NC(=O)[C@H](Cc1ccc(O)cc1)NC(=O)[C@H](CCCNC(=N)N)NC(=O)[C@H](CCCNC(=N)N)NC(=O)[C@H](CC(C)C)NC(=O)[C@H](CC(=O)O)NC(=O)[C@H](C)NC(=O)[C@H](C)NC(=O)[C@H](Cc1ccc(O)cc1)NC(=O)[C@H](CCC(N)=O)NC(=O)[C@H](C)NC(=O)[C@H](CC(C)C)NC(=O)[C@H](CCC(N)=O)NC(=O)[C@H](CCC(=O)O)NC(=O)[C@@H]1CCCN1C(=O)[C@@H](NC(=O)[C@H](C)NC(=O)[C@H](CC(N)=O)NC(=O)[C@H](CC(=O)O)NC(=O)CNC(=O)[C@@H]1CCCN1C(=O)[C@H](Cc1ccc(O)cc1)NC(=O)[C@@H](NC(=O)[C@@H]1CCCN1C(=O)[C@H](CCC(=O)O)NC(=O)[C@H](CC(C)C)NC(=O)[C@@H]1CCCN1)C(C)C)[C@@H](C)O)C(=O)N[C@@H](CCCCNC(=O)COCCOCCNC(=O)COCCOCCNC(=O)CC[C@H](NC(=O)[C@H]1CC[C@H](CNC(=O)CCCCCCCCCCCCCCCCCCC(=O)O)CC1)C(=O)O)C(=O)N[C@@H](CC(C)C)C(=O)N[C@@H](CC(C)C)C(=O)N[C@H](C(=O)N[C@@H](CCCNC(=N)N)C(=O)N1CCC[C@H]1C(=O)N[C@@H](CCCNC(=N)N)C(=O)N[C@@H](Cc1ccc(O)cc1)C(N)=O)[C@@H](C)O [SEQ ID NO: 44, N-epsilon29-[2-(2-{2-[2-(2-{2-[(S)-4-Carboxy-4-({trans-4-[(19-carboxynonadecanoylamino)methyl]cyclohexanecarbonyl}amino)butyrylamino]-ethoxy}ethoxy)acetylamino]ethoxy}ethoxy)acetyl][Leu17,Lys29,Leu30]hPP2-36] (H-PLEPVYPGDNATPEQLAQYAADLRRYIK([AEEA-AEEA-γGlu-Trx-C20 diacid])LLTRPRY-NH2) | > 1000 | > 890 |  | half-life (in vivo; iv, 4 nmol/kg): 74 h; half-life (in vivo; male, sc, 4 nmol/kg): 93 h |
| CC[C@H](C)[C@H](NC(=O)[C@H](Cc1ccc(O)cc1)NC(=O)[C@H](CCCCNC(=O)COCCOCCNC(=O)COCCOCCNC(=O)CC[C@H](NC(=O)[C@H]1CC[C@H](CNC(=O)CCCCCCCCCCCCCCCCCCC(=O)O)CC1)C(=O)O)NC(=O)[C@H](CCCNC(=N)N)NC(=O)[C@H](CC(C)C)NC(=O)[C@H](CC(=O)O)NC(=O)[C@H](C)NC(=O)[C@H](C)NC(=O)[C@H](Cc1ccc(O)cc1)NC(=O)[C@H](CCC(N)=O)NC(=O)[C@H](C)NC(=O)[C@H](CC(C)C)NC(=O)[C@H](CCC(N)=O)NC(=O)[C@H](CCC(=O)O)NC(=O)[C@@H]1CCCN1C(=O)[C@@H](NC(=O)[C@H](C)NC(=O)[C@H](CC(N)=O)NC(=O)[C@H](CC(=O)O)NC(=O)CNC(=O)[C@@H]1CCCN1C(=O)[C@H](Cc1ccc(O)cc1)NC(=O)[C@@H](NC(=O)[C@@H]1CCCN1C(=O)[C@H](CCC(=O)O)NC(=O)[C@H](CC(C)C)NC(=O)[C@@H]1CCCN1)C(C)C)[C@@H](C)O)C(=O)N[C@@H](CC(N)=O)C(=O)N[C@@H](CC(C)C)C(=O)N[C@@H](CC(C)C)C(=O)N[C@H](C(=O)N[C@@H](CCCNC(=N)N)C(=O)N1CCC[C@H]1C(=O)N[C@@H](CCCNC(=N)N)C(=O)N[C@@H](Cc1ccc(O)cc1)C(N)=O)[C@@H](C)O [SEQ ID NO: 45, N-epsilon26-[2-(2-{2-[2-(2-{2-[(S)-4-Carboxy-4-({trans-4-[(19-carboxynonadecanoylamino)methyl]cyclohexanecarbonyl}amino)butyrylamino]-ethoxy}ethoxy)acetylamino]ethoxy}ethoxy)acetyl][Leu17,Lys26,Leu30]hPP2-36] (H-PLEPVYPGDNATPEQLAQYAADLRK([AEEA-AEEA-γGlu-Trx-C20 diacid])YINLLTRPRY-NH2; N-terminus and C-terminus assumed) |  |  | 7 | EC50 (Y2 receptor): > 1000 nM; half-life (in vivo; in vivo, iv, 4 nmol/kg): 58 h |
| CC[C@H](C)[C@H](NC(=O)[C@H](Cc1ccc(O)cc1)NC(=O)[C@H](CCCNC(=N)N)NC(=O)[C@H](CCCNC(=N)N)NC(=O)[C@H](CC(C)C)NC(=O)[C@H](CC(=O)O)NC(=O)[C@H](C)NC(=O)[C@H](C)NC(=O)[C@H](Cc1ccc(O)cc1)NC(=O)[C@H](CCC(N)=O)NC(=O)[C@H](C)NC(=O)[C@H](CC(C)C)NC(=O)[C@H](CCC(N)=O)NC(=O)[C@H](CCC(=O)O)NC(=O)[C@@H]1CCCN1C(=O)[C@@H](NC(=O)[C@H](C)NC(=O)[C@H](CCCCNC(=O)COCCOCCNC(=O)COCCOCCNC(=O)CC[C@H](NC(=O)CCCCCCCCCCCCCCCCC(=O)O)C(=O)O)NC(=O)[C@H](CC(=O)O)NC(=O)CNC(=O)[C@@H]1CCCN1C(=O)[C@H](Cc1ccc(O)cc1)NC(=O)[C@@H](NC(=O)[C@@H]1CCCN1C(=O)[C@H](CCC(=O)O)NC(=O)[C@H](CC(C)C)NC(=O)[C@@H]1CCCN1)C(C)C)[C@@H](C)O)C(=O)N[C@@H](CC(N)=O)C(=O)N[C@@H](CC(C)C)C(=O)N[C@@H](CC(C)C)C(=O)N[C@H](C(=O)N[C@@H](CCCNC(=N)N)C(=O)N1CCC[C@H]1C(=O)N[C@@H](CCCNC(=N)N)C(=O)N[C@@H](Cc1ccc(O)cc1)C(N)=O)[C@@H](C)O [SEQ ID NO: 30, N-epsilon11-[2-(2-{2-[2-(2-{2-[(S)-4-Carboxy-4-(17-carboxyheptadecanoylamino)butyrylamino]ethoxy}ethoxy)acetylamino]-ethoxy}ethoxy)acetyl][Lys11,Leu17,Leu30]hPP2-36] (H-PLEPVYPGDK([AEEA-AEEA-γGlu-C18 diacid])ATPEQLAQYAADLRRYINLLTRPRY-NH2; N-terminus and C-terminus assumed) | > 1000 | 1 |  | half-life (in vivo; iv, […]): 22 h |
| CC[C@H](C)[C@H](NC(=O)[C@H](Cc1ccc(O)cc1)NC(=O)[C@H](CCCNC(=N)N)NC(=O)[C@H](CCCNC(=N)N)NC(=O)[C@H](CC(C)C)NC(=O)[C@H](CC(=O)O)NC(=O)[C@H](C)NC(=O)[C@H](C)NC(=O)[C@H](Cc1ccc(O)cc1)NC(=O)[C@H](CCC(N)=O)NC(=O)[C@H](C)NC(=O)[C@H](CC(C)C)NC(=O)[C@H](CCC(N)=O)NC(=O)[C@H](CCC(=O)O)NC(=O)[C@@H]1CCCN1C(=O)[C@H](CCCCNC(=O)COCCOCCNC(=O)COCCOCCNC(=O)CC[C@H](NC(=O)[C@H]1CC[C@H](CNC(=O)CCCCCCCCCCCCCCCCCCC(=O)O)CC1)C(=O)O)NC(=O)[C@H](C)NC(=O)[C@H](CC(N)=O)NC(=O)[C@H](CC(=O)O)NC(=O)CNC(=O)[C@@H]1CCCN1C(=O)[C@H](Cc1ccc(O)cc1)NC(=O)[C@@H](NC(=O)[C@@H]1CCCN1C(=O)[C@H](CCC(=O)O)NC(=O)[C@H](CC(C)C)NC(=O)[C@@H]1CCCN1C(=O)[C@H](C)N)C(C)C)C(=O)N[C@@H](CC(N)=O)C(=O)N[C@H](C(=O)N[C@@H](CC(C)C)C(=O)N[C@H](C(=O)N[C@@H](CCCNC(=N)N)C(=O)N[C@@H](CCC(N)=O)C(=O)N[C@@H](CCCNC(=N)N)C(=O)N[C@@H](Cc1ccc(O)cc1)C(N)=O)[C@@H](C)O)C(C)C [SEQ ID NO: 17, N-epsilon13-[2-(2-{2-[2-(2-{2-[(S)-4-Carboxy-4-({trans-4-[(19-carboxynonadecanoylamino)methyl]cyclohexanecarbonyl}amino)butyrylamino]-ethoxy}ethoxy)acetylamino]ethoxy}ethoxy)acetyl][Lys13,Leu17,Val30,Gln34]hPP(1-36)] (H-APLEPVYPGDNAK([AEEA-AEEA-γGlu-Trx-C20 diacid])PEQLAQYAADLRRYINVLTRQRY-NH2; N-terminus and C-terminus assumed) |  |  | 7 |  |
